From patent US20060052297A1, “Method of up-regulating tumor antigen expression using thymalfasin” (priority 2002, published 2006)

Assays:
[1] = Safety of thymalfasin in humans; type: in vivo, human
Experimental: (§1) TLP expression-enhancing amounts of thymalfasin peptide can be determined by routine dose-titration experiments. Up-regulation of TLP can be achieved in vivo by administration of between 2 μg/kg and 6 mg/kg body weight of thymalfasin, preferably between 20 μg/kg and 200 μg/kg.

[2] = Safety of thymalfasin in rats; type: in vivo, rat
Experimental: as §1

[3] = subcutaneously injected; Rost, et al., 1998; cited from earlier work

Substance: Ac-SDAAVDTSSEITTKDLKEKKEVVEEAEN-OH [thymalfasin]
- dose found to be safe [1]: ≤ 16 mg/dose/day
- dose found to be safe [2]: ≤ 6 mg/kg/day
- plasma half-life [3]: about 2 hours
